Measured values published in US10913744B2, “LRRK2 inhibitors and methods of making and using the same” (Dana-Farber Cancer Institute, Inc., priority 2015, dated 2021).
Like-named read-outs stand apart in the source and are kept apart here.

Legend:
GFP-LRRK2[G2019S] = GFP-LRRK2[G2019S] (Homo sapiens (Human), UniProt Q5S007, G2019S); experiment: Ser910/Ser935 phosphorylation immunoblot in HEK293 cells; assay type: cell-based; conditions: 90 min
Method: (§1) FIG. 2A-2D show inhibition of LRRK2 by Compound 18. HEK293 cells stably expressing FIG. 2A: wild-type GFP-LRRK2, FIG. 2B: GFP-LRRK2[G2019S], FIG. 2C: GFP-LRRK2[G2019S+A2016T], and FIG. 2D: GFP-LRRK2[A2016T] were treated with dimethylsulfoxide (DMSO) or increasing concentrations of Compound 18 for 90 min (1 μM of LRRK2-IN-1 was used as a control). Cell lysates were subjected to immunoblotting for detection of LRRK2 phosphorylated at Ser910 and Ser935 and for total LRRK2.
(§2) HEK293 and Swiss 3T3 cells were cultured in DMEM (Dulbecco's Modified Eagle's medium) supplemented with 10% FBS (fetal bovine serum), 2 mM glutamine and 1× penicillin/streptomycin solution. HEK-293 T-Rex cell lines were cultured in DMEM supplemented with 10% (v/v) FBS and 2 mM glutamine, lx penicillin/streptomycin solution, 15 μg/ml blastocidin and 100 μg/ml hygromycin. T-Rex cultures were induced to express the indicated protein by inclusion of 0.1 μg/ml doxycycline in the culture medium for 24-48 hr. […] Protein concentrations were determined following centrifugation of the lysate at 16,000×g at 4° C. for 20 minutes using the Bradford method with BSA as the standard. […]
(§3) As there are no validated direct phosphorylation substrates of LRRK2, phosphorylation of Ser910 and Ser935, two residues whose phosphorylation is known to be dependent upon LRRK2 kinase activity, was monitored.

wild-type GFP-LRRK2 = wild-type GFP-LRRK2 (Homo sapiens (Human), UniProt Q5S007); experiment: as above; assay type: cell-based; conditions: 90 min
Method: as §1, §2, §3

panel of 451 kinases = experiment: KinomeScan panel selectivity; assay type: binding; conditions: 1 μM
From the text: The kinase selectivity of Compound 18 was further evaluated by KinomeScan.

CDK8 = CDK8 (Homo sapiens (Human), UniProt P49336); experiment: KinomeScan; assay type: binding; conditions: 1 uM
EGFR (L861Q) = EGFR (L861Q) (Homo sapiens (Human), UniProt P00533, L861Q); experiment: KinomeScan; assay type: binding; conditions: 1 uM
EPHB2 = EPHB2 (Homo sapiens (Human), UniProt P29323); experiment: KinomeScan; assay type: binding; conditions: 1 uM
FLT3 (ITD) = experiment: KinomeScan; assay type: binding; conditions: 1 uM
MLK3 [1] = target: T1, MLK3 (Homo sapiens (Human), UniProt Q16584); experiment: KinomeScan; assay type: binding; conditions: 1 uM
Target sequence in this assay (Q16584 whole entry, looked up): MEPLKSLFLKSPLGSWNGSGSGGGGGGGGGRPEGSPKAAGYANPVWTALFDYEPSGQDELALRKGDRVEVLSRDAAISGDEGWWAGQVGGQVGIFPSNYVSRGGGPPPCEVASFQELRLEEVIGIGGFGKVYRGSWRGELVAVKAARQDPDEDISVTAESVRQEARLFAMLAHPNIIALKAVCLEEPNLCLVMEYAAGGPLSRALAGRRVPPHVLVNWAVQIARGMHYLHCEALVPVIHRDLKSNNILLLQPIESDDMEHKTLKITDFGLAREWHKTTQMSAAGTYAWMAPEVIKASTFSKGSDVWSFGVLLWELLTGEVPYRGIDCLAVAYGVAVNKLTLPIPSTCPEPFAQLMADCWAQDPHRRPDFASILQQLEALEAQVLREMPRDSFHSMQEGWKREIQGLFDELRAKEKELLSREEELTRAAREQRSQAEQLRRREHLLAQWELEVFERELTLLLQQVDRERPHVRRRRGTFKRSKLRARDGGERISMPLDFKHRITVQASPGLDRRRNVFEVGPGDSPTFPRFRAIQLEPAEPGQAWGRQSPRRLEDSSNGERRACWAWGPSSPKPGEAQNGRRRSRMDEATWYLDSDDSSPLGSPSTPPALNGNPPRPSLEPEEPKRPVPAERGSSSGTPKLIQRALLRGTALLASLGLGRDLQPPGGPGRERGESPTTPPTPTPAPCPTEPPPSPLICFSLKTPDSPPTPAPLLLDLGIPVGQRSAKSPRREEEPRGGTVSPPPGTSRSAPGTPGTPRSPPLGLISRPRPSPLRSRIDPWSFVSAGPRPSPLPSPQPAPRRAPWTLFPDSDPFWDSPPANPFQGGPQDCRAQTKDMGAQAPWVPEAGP

[2] = target: TYK2 (JH2domain-pseudokinase) (Homo sapiens (Human), UniProt P29597); experiment: KinomeScan; assay type: binding; conditions: 1 uM
ULK3 = ULK3 (Homo sapiens (Human), UniProt Q6PHR2); experiment: KinomeScan; assay type: binding; conditions: 1 uM
MELK = MELK (Homo sapiens (Human), UniProt Q14680); experiment: Dundee profiling
RSK2 = RSK2 (Homo sapiens (Human), UniProt P51812); experiment: Dundee profiling
p38g MAPK = p38g MAPK (Homo sapiens (Human), UniProt P53778); experiment: Dundee profiling
CHK1 = CHK1 (Homo sapiens (Human), UniProt O14757); experiment: Dundee profiling
EPH-A4 = EPH-A4 (Homo sapiens (Human), UniProt P54764); experiment: Dundee profiling
PINK = experiment: Dundee profiling
PRK2 = PRK2 (Homo sapiens (Human), UniProt Q16513); experiment: Dundee profiling
MST3 = MST3 (Homo sapiens (Human), UniProt Q9Y6E0); experiment: Dundee profiling
PKCa = PKCa (Homo sapiens (Human), UniProt P17252); experiment: Dundee profiling
MLK3 [3] = target: T1, MLK3; experiment: Dundee profiling
Target sequence in this assay (Q16584 whole entry, looked up, species assumed): as the sequence (Q16584 whole entry, looked up) above

[4] = read-out: percent remaining enzymatic activity, I1, 1 μM
[5] = read-out: percent remaining enzymatic activity, I10
[6] = read-out: percent remaining enzymatic activity

Chain of EPH-A4 (P54764 20-986, species assumed): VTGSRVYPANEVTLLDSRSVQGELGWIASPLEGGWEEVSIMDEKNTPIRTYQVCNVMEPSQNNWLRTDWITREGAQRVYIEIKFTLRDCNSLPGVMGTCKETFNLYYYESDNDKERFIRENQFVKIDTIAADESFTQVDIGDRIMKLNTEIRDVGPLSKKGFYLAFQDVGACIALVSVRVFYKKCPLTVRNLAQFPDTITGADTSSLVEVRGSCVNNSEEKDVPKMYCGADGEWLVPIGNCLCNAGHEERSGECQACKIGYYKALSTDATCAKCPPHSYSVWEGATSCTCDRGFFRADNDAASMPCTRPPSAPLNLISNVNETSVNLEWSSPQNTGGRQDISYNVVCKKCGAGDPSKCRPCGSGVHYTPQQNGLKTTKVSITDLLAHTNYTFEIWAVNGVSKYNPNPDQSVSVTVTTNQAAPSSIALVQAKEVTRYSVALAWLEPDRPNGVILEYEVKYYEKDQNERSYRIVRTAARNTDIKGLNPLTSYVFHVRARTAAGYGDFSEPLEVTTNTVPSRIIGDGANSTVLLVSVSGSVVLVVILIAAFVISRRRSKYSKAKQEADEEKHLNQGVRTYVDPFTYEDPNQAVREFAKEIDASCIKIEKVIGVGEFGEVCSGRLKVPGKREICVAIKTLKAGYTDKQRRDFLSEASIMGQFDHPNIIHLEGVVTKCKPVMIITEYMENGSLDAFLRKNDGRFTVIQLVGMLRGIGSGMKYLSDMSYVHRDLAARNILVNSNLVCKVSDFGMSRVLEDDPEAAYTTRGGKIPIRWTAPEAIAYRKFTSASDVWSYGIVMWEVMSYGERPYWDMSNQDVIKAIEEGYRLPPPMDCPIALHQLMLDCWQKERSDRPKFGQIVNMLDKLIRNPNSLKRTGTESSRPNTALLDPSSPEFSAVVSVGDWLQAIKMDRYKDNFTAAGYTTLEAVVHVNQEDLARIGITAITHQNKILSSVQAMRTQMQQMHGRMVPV
Chain of MST3 (Q9Y6E0 whole entry, species assumed): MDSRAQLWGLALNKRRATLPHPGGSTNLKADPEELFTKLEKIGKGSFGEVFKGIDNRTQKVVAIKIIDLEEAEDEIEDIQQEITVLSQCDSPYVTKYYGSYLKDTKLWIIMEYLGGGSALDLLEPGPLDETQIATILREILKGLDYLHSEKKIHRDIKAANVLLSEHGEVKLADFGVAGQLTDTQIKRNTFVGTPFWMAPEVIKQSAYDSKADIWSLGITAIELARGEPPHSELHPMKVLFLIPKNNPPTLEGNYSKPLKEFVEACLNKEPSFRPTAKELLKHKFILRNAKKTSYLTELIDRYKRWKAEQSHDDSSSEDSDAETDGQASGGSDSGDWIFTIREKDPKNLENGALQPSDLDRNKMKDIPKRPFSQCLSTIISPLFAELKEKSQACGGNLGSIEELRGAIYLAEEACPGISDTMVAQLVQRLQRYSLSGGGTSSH
Chain of CHK1 (O14757 whole entry, species assumed): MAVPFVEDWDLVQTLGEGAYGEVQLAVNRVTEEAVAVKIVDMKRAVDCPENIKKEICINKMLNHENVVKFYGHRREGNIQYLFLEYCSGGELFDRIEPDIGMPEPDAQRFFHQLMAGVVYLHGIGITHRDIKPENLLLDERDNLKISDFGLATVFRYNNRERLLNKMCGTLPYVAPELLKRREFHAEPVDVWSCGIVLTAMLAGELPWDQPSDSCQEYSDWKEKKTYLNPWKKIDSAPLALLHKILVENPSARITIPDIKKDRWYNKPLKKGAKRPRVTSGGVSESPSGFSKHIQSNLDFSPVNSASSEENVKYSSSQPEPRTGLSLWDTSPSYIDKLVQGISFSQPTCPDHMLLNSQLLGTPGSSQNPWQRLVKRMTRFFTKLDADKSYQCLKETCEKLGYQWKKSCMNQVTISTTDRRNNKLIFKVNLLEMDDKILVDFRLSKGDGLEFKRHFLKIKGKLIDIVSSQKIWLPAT
Chain of p38g MAPK (P53778 whole entry): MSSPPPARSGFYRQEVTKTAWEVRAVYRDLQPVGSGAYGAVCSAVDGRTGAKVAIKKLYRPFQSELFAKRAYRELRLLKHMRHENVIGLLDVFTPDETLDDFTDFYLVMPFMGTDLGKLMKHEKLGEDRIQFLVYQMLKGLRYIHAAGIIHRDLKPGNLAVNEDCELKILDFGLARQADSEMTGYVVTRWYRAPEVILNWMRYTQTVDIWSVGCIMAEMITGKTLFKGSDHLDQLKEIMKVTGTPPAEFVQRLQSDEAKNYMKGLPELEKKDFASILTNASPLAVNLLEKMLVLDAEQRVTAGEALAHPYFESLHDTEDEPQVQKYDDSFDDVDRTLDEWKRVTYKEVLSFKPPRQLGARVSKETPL
Chain of MELK (Q14680 whole entry, species assumed): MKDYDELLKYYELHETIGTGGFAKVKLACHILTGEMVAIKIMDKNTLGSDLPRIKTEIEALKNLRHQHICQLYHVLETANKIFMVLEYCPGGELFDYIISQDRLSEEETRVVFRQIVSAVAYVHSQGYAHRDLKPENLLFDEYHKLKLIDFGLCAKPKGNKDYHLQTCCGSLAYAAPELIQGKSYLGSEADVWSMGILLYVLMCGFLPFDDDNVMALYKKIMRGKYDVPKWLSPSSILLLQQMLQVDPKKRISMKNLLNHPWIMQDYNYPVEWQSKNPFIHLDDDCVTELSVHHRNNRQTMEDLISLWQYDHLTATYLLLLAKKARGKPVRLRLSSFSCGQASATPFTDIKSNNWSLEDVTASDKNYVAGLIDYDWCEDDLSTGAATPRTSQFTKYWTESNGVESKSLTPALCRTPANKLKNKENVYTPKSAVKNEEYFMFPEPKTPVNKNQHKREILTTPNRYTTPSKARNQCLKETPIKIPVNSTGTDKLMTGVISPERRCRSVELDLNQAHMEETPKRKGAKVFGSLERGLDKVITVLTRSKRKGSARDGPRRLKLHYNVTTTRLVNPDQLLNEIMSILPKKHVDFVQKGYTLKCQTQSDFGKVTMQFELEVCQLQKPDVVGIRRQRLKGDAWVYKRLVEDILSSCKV
Chain of CDK8 (P49336 whole entry): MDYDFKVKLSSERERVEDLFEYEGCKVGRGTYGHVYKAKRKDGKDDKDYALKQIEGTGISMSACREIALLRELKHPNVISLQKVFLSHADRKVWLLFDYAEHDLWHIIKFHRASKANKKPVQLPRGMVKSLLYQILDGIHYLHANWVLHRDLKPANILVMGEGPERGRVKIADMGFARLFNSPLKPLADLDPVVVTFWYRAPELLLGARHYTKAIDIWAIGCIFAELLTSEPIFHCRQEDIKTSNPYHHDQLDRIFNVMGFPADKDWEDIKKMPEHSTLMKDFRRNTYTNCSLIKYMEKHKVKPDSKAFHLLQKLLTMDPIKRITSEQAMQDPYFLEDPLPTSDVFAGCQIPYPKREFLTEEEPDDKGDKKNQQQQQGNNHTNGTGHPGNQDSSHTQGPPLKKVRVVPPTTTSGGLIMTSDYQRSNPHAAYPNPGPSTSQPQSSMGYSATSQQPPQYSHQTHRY

SMILES: CNc1nc(Nc2ccc(C(=O)N3CCOCC3)cc2OC)nc2[nH]cc(Cl)c12 [Compound 18, (4-((5-chloro-4-(methylamino)-7H-pyrrolo[2,3-d]pyrimidin-2-yl)amino)-3-methoxyphenyl)(morpholino)methanone]
- concentration giving substantial dephosphorylation of Ser910 and Ser935 (GFP-LRRK2[G2019S]): approximately 0.3
- concentration giving substantial dephosphorylation of Ser910 and Ser935 (wild-type GFP-LRRK2): approximately 0.3
- kinase selectivity, interactions detected (panel of 451 kinases): no interactions detected with kinases other than LRRK2[G2019S] with the exception of TTK and RPS6KA4
- KinomeScan value (CDK8): 74
- KinomeScan value (EGFR (L861Q)): 57
- KinomeScan value (EPHB2): 98
- KinomeScan value (FLT3 (ITD)): 94
- KinomeScan value (MLK3 [1]): 100
- KinomeScan value [2]: 100
- KinomeScan value (ULK3): 96
- remaining activity at 1 µM (MELK; [4]): 118%
- remaining activity at 1 µM (MELK; [5]): 79%
- remaining activity at 1 µM (RSK2; [4]): 117%
- remaining activity at 1 µM (RSK2; [5]): 94%
- remaining activity at 1 µM (p38g MAPK; [4]): 116%
- remaining activity at 1 µM (p38g MAPK; [5]): 96%
- percent remaining enzymatic activity (CHK1; I10): 93%
- remaining activity at 1 µM (CHK1; [6]): 110%
- remaining activity at 1 µM (EPH-A4; [4]): 107%
- remaining activity at 1 µM (EPH-A4; [5]): 102%
- percent remaining enzymatic activity (PINK; I1, 1 μM): 105%
- percent remaining enzymatic activity (PINK; I10): 89%
- remaining activity at 1 µM (PRK2; [4]): 103%
- remaining activity at 1 µM (PRK2; [5]): 93%
- percent remaining enzymatic activity (MST3; I10): 95%
- remaining activity at 1 µM (MST3; [6]): 102%
- remaining activity at 1 µM (PKCa; [4]): 102%
- remaining activity at 1 µM (PKCa; [5]): 100%
- percent remaining enzymatic activity (MLK3 [3]; I10): 35%
- remaining activity at 1 µM (MLK3 [3]; [6]): 78%
